Reference: patent US20150038430A1, “THERAPEUTIC PEPTIDOMIMETIC MACROCYCLES” (AILERON Therapeutics, Inc., priority 2008, published 2015)
pEC50: −log10 of the molar value. Numbered stars: 1 amine (or outer) side, 2 acyl side, 3 side chain; on linkers, the order of the positions; unused ones are H or OH. Bridge positions count the residues as written; N and C are the ends. Square brackets hold non-standard residues; d marks the D form. Peptide text beside a SMILES is read from it. * marks the point of attachment. ξ: configuration not given here. ξαMeNle(6-ylidene) = CC(CCCC=[*:3])(N[*:1])C(=O)[*:2]; Nle = CCCC[C@H](N)C(=O)O; Aib = CC(C)(N)C(=O)O; Propionyl = CCC(=O)*

Columns and labels:
[1] = tested on: A375; format: cell-based, human; settings: 24 h
Description: (§1) Cell viability assays shown in FIGS. 34-52 were performed according to a similar protocol. Cells were split at optimal cell density a day prior to the initiation of the study. The next day, cells were washed twice in serum-free Opti-MEM media and 4000 cells/well were added to each well in a final volume of […] Opti-MEM. For serum-free experiments, macrocycles were diluted from 2 mM stocks (100% DMSO) in sterile water to prepare 400 μM working solutions. A 40 μM solution was then generated by ten-fold dilution in assay buffer. The macrocycle and controls were then serially diluted two-fold in assay buffer in dosing plates to provide concentrations between 1.2 and 40 μM, respectively. For experiments in 2% human serum, macrocycles were diluted from 10 mM stocks (100% DMSO) in sterile water to prepare 1 mM working solutions. A 100 μM solution was generated by ten-fold dilution in assay buffer. The macrocycles and controls were then serially diluted two-fold in assay buffer in dosing plates to provide concentrations between 3 and 100 μM, respectively. 50 μl of each dilution was then added to the appropriate wells of the test plate to achieve final concentrations of the macrocycle between 0.6 to 20 μM (for serum free experiment) or 1.5 to 50 μM (for 2% serum experiment), respectively. Controls included wells without macrocycles containing the same concentration of DMSO as the macrocycle-containing wells, wells containing 0.1% Triton X-100, and wells containing no cells. Plates were incubated for 24 hours at 37° C. in a humidified 5% CO2 atmosphere. At the end of a 24 hr incubation period, a CellTiter-Glo Luminescent Cell Viability Assay was performed according to manufacturer's instructions (Promega, catalog #G7571) and the luminescence was measured using a BIO-TEK synergy HT Plate reader. Values were plotted as percent viable, i.e. as a percentage of the negative control value (derived from cells exposed to DMSO only). All assays were performed in duplicate.
(§2) The following tables summarize the EC50 values (μM) observed with peptidomimetic macrocycles of the invention in various cell lines: […]

[2] = tested on: DHL-6; format: cell-based, human; settings: 24 h
Description: as §1, §2

[3] = tested on: Jurkat; format: cell-based, human; settings: 24 h
Description: as §1, §2

[4] = tested on: MDA-MB231-Met; format: cell-based, human; settings: 24 h
Description: as §1, §2

[5] = tested on: MM1S; format: cell-based, human; settings: 24 h
Description: as §1, §2

[6] = tested on: Molt-4; format: cell-based, human; settings: 24 h
Description: as §1, §2

[7] = tested on: NCI-H82 (SCLC-MCL1+); format: cell-based, human; settings: 24 h
Description: as §1, §2

[8] = tested on: OVCAR8; format: cell-based, human; settings: 24 h
Description: as §1, §2

[9] = tested on: PC3; format: cell-based, human; settings: 24 h
Description: as §1, §2

[10] = tested on: RS4;11; format: cell-based, human; settings: 24 h
Description: as §1, §2

[11] = tested on: Raji; format: cell-based, human; settings: 24 h
Description: as §1, §2

[12] = tested on: SEMK2; format: cell-based, human; settings: 24 h
Description: as §1, §2

[13] = target: Bcl-xL (Homo sapiens, UniProt Q07817); assay: Kd, μM | Bcl-xL
Bcl-xL, sequence (Q07817 whole entry, looked up): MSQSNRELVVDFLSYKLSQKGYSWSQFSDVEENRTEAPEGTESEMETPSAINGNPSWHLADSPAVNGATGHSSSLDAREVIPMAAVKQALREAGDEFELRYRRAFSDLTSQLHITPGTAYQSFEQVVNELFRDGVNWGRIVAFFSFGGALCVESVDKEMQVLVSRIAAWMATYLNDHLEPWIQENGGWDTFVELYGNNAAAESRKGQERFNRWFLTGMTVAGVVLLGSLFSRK
Source text: (§3) Table printed on a drawing sheet, Figure 27
Head of the field: Kd, μM | Bcl-xL
Where the first naming reader finds the target: head: Kd, μM | Bcl-xL

[14] = target: Mcl-1; assay: Kd, μM | Mcl-1
Source text: as §3
Head of the field: Kd, μM | Mcl-1
First copying reader's note: The last row (ABT-737) is a small-molecule comparator; the three plots above the table are not copied.
Where the first naming reader finds the target: head: Kd, μM | Mcl-1

Compound	pEC50 [1]	pEC50 [2]	pEC50 [3]	pEC50 [4]	pEC50 [5]	pEC50 [6]	pEC50 [7]	pEC50 [8]	pEC50 [9]	pEC50 [10]	pEC50 [11]	pEC50 [12]	Kd [13]	Kd [14]
CCCC[C@H](NC(=O)C1(C)CCCC=CCCCC(C)(NC(=O)[C@H](C)NC(=O)[C@H](CC(C)C)NC(=O)[C@H](Cc2c[nH]cn2)NC(=O)[C@H](CCCNC(=N)N)NC(=O)[C@H](C)NC(=O)[C@@H](NC(=O)[C@H](CC(N)=O)NC(=O)[C@H](CCCNC(=N)N)NC(=O)CC)[C@@H](C)CC)C(=O)N[C@@H](C(C)C)C(=O)NCC(=O)N[C@@H](CC(=O)O)C(=O)N1)C(=O)NC(C)(C)C(=O)N[C@@H](CCCNC(=N)N)C(=O)N[C@@H](CO)C(=O)N[C@H](C(N)=O)[C@@H](C)CC (some centres unmarked) [SP-10] (Propionyl-RNIARHLA[ξαMeNle(6-ylidene)]VGD[ξαMeNle(6-ylidene)][Nle][Aib]RSI-NH2; staple 9-13)	5.28	5.72	5.72	5.51	5.60	5.72	5.24	5.09	5.22	5.46	5.30	5.09	–	–
CCC(=O)N[C@@H](CCCNC(=N)N)C(=O)N[C@@H](CC(N)=O)C(=O)N[C@H](C(=O)N[C@@H](C)C(=O)N[C@@H](CCCNC(=N)N)C(=O)N[C@@H](Cc1c[nH]cn1)C(=O)N[C@@H](CC(C)C)C(=O)N[C@@H](C)C(=O)NC1(C)CCCC=CCCCC(C)(C(=O)N[C@@H](Cc2ccccc2)C(=O)N[C@@H](C)C(=O)N[C@@H](CCCNC(=N)N)C(=O)N[C@@H](CO)C(=O)N[C@H](C(N)=O)[C@@H](C)CC)NC(=O)[C@H](CC(=O)O)NC(=O)C(C)(C)NC(=O)[C@H](C(C)C)NC1=O)[C@@H](C)CC (some centres unmarked) [SP-9] (Propionyl-RNIARHLA[ξαMeNle(6-ylidene)]V[Aib]D[ξαMeNle(6-ylidene)]FARSI-NH2; staple 9-13)	5.39	5.57	5.72	5.54	5.26	6.00	5.38	5.15	5.24	5.37	5.24	5.09	–	–
CC[C@H](C)[C@H](NC(C)=O)C(=O)N[C@@H](Cc1c[nH]c2ccccc12)C(=O)N[C@H](C(=O)N[C@@H](C)C(=O)N[C@@H](CCC(N)=O)C(=O)N[C@@H](C)C(=O)N[C@@H](C)C(=O)N[C@@H](CCCNC(=N)N)C(=O)NC1(C)CCCC=CCCCC(C)(C(=O)N[C@@H](C)C(=O)N[C@@H](CC(N)=O)C(=O)N[C@@H](C)C(=O)N[C@@H](Cc2ccc(O)cc2)C(=O)N[C@@H](Cc2ccc(O)cc2)C(=O)N[C@@H](C)C(=O)N[C@@H](CCCNC(=N)N)C(=O)N[C@@H](CCCNC(=N)N)C(N)=O)NC(=O)CNC(=O)[C@H]([C@@H](C)CC)NC(=O)[C@H](CC(=O)O)NC1=O)[C@@H](C)CC (some centres unmarked) [SP-24] (Ac-IWIAQAAR[ξαMeNle(6-ylidene)]DIG[ξαMeNle(6-ylidene)]ANAYYARR-NH2; staple 9-13)	< 4.70	–	< 4.70	< 4.70	–	–	< 4.70	< 4.70	< 4.70	–	–	–	–	–

Other lines, results leading:

pEC50 [1]	pEC50 [2]	pEC50 [3]	pEC50 [4]	pEC50 [5]	pEC50 [6]	pEC50 [7]	pEC50 [8]	pEC50 [9]	pEC50 [10]	pEC50 [11]	pEC50 [12]	Kd [13]	Kd [14]	Compound
6.00	6.22	6.30	6.00	6.22	6.05	6.30	5.85	6.22	6.00	5.74	6.05	–	–	CC[C@H](C)[C@H](NC(C)=O)C(=O)N[C@@H](Cc1c[nH]c2ccccc12)C(=O)N[C@H](C(=O)N[C@@H](C)C(=O)N[C@@H](CCC(N)=O)C(=O)N[C@@H](C)C(=O)N[C@@H](CC(C)C)C(=O)N[C@@H](CCCNC(=N)N)C(=O)NC1(C)CCCC=CCCCC(C)(C(=O)N[C@@H](Cc2ccccc2)C(=O)N[C@@H](CC(N)=O)C(=O)N[C@@H](C)C(=O)N[C@@H](Cc2ccc(O)cc2)C(=O)N[C@@H](Cc2ccc(O)cc2)C(=O)N[C@@H](C)C(=O)N[C@@H](CCCNC(=N)N)C(=O)N[C@@H](CCCNC(=N)N)C(N)=O)NC(=O)[C@H](CC(N)=O)NC(=O)CNC(=O)[C@H]([C@@H](C)CC)NC1=O)[C@@H](C)CC (some centres unmarked) [SP-25] (Ac-IWIAQALR[ξαMeNle(6-ylidene)]IGN[ξαMeNle(6-ylidene)]FNAYYARR-NH2; staple 9-13)
6.15	–	6.40	6.30	–	6.15	6.05	6.15	5.72	5.77	6.52	6.30	0.19 µM	2.5 µM	CCCC[C@@H]1NC(=O)CNC(=O)[C@H]([C@@H](C)CC)NC(=O)C(C)(NC(=O)[C@H](CCCNC(=N)N)NC(=O)[C@H](CC(C)C)NC(=O)[C@H](C)NC(=O)[C@H](CCC(N)=O)NC(=O)[C@H](C)NC(=O)[C@@H](NC(=O)[C@H](Cc2c[nH]c3ccccc23)NC(=O)[C@H](CCCNC(=N)N)NC(C)=O)[C@@H](C)CC)CCCC=CCCCC(C)(C(=O)N[C@@H](Cc2ccccc2)C(=O)N[C@@H](CC(N)=O)C(=O)N[C@@H](C)C(=O)N[C@@H](Cc2ccc(O)cc2)C(=O)N[C@@H](Cc2ccc(O)cc2)C(=O)N[C@@H](C)C(=O)N[C@@H](CCCNC(=N)N)C(=O)N[C@@H](CCCNC(=N)N)C(N)=O)NC1=O (some centres unmarked) [SP-12] (Ac-RWIAQALR[ξαMeNle(6-ylidene)]IG[Nle][ξαMeNle(6-ylidene)]FNAYYARR-NH2; staple 9-13)
6.10	6.30	6.40	6.05	6.22	6.15	–	5.74	5.68	5.77	6.00	6.10	–	–	CC[C@H](C)[C@H](NC(=O)[C@H](Cc1c[nH]c2ccccc12)NC(=O)[C@H](CCCNC(=N)N)NC(C)=O)C(=O)N[C@@H](C)C(=O)N[C@@H](CCC(N)=O)C(=O)N[C@@H](C)C(=O)N[C@@H](CC(C)C)C(=O)N[C@@H](CCCNC(=N)N)C(=O)NC1(C)CCCC=CCCCC(C)(C(=O)N[C@@H](Cc2ccccc2)C(=O)N[C@@H](CC(N)=O)C(=O)N[C@@H](C)C(=O)N[C@@H](Cc2ccccc2)C(=O)N[C@@H](Cc2ccc(O)cc2)C(=O)N[C@@H](C)C(=O)N[C@@H](CCCNC(=N)N)C(=O)N[C@@H](CCCNC(=N)N)C(N)=O)NC(=O)[C@H](CC(=O)O)NC(=O)CNC(=O)[C@H]([C@@H](C)CC)NC1=O (some centres unmarked) [SP-15] (Ac-RWIAQALR[ξαMeNle(6-ylidene)]IGD[ξαMeNle(6-ylidene)]FNAFYARR-NH2; staple 9-13)
6.00	6.30	6.05	6.22	6.15	6.22	6.22	6.05	5.70	6.00	5.74	6.00	–	–	CC[C@H](C)[C@H](NC(=O)[C@H](Cc1c[nH]c2ccccc12)NC(=O)[C@H](CCCNC(=N)N)NC(C)=O)C(=O)N[C@@H](C)C(=O)N[C@@H](CCC(N)=O)C(=O)N[C@@H](C)C(=O)N[C@@H](CC(C)C)C(=O)N[C@@H](CCCNC(=N)N)C(=O)NC1(C)CCCC=CCCCC(C)(C(=O)N[C@@H](Cc2ccccc2)C(=O)N[C@@H](CC(N)=O)C(=O)N[C@@H](C)C(=O)N[C@@H](Cc2ccc(O)cc2)C(=O)N[C@@H](Cc2ccc(O)cc2)C(=O)N[C@@H](C)C(=O)N[C@@H](CCCNC(=N)N)C(=O)N[C@@H](CCCNC(=N)N)C(N)=O)NC(=O)[C@H](CC(N)=O)NC(=O)CNC(=O)[C@H]([C@@H](C)CC)NC1=O (some centres unmarked) [SP-23] (Ac-RWIAQALR[ξαMeNle(6-ylidene)]IGN[ξαMeNle(6-ylidene)]FNAYYARR-NH2; staple 9-13)
